# Experimental data reported in ChEMBL document CHEMBL1151776, “Identification of aquaporin 4 inhibitors using in vitro and in silico methods” (Bioorg Med Chem, 2009).
# Assays:
# Assay type in all cases: cell-based
# Oocyte [1] = test: Inhibition of human aquaporin 4 M23 isoform expressed in Xenopus laevis oocytes at 20 uM
# [2] = (§1) Inhibition of human aquaporin 4 M23 isoform expressed in Xenopus laevis oocytes; settings: oocyte
# Oocyte [3] = test: as §1
Structure (SMILES),inhibition (Oocyte [1]),IC50 [2],Imax (Oocyte [3])
CN(C)CCc1c[nH]c2ccc(Cn3cncn3)cc12 [RIZATRIPTAN],52%,2.9 µM,54%
Oc1cnc(Nc2nc3ccccc3o2)[nH]1,44%,,
O=S(=O)(Cc1ccccc1)Nc1nccs1,45%,,
CN1CCc2cccc3c2[C@H]1Cc1ccc(O)c(O)c1-3,40%,,
CNS(=O)(=O)Cc1ccc2[nH]cc(CCN(C)C)c2c1 [SUMATRIPTAN],54%,11 µM,52%
NC(=O)c1nc[nH]c1C(N)=O,23%,,
N[C@@H]1CONC1=O,3%,,
COc1ccccc1OCC(O)CO (centres undefined),34%,,
NC(=O)NCCC[C@H](N)C(=O)O,0%,,
NS(=O)(=O)c1ccc(Cl)s1,18%,,
OCC(O)COCc1ccccc1 (centres undefined),11%,,
O=C(Nc1nncs1)c1cccnc1,67%,3.1 µM,73%
O=C(Nc1nccs1)c1cccnc1,30%,,
CCCC(C)C1(CC)C(=O)NC(=O)NC1=O (centres undefined),9%,,
NS(=O)(=O)c1cc(Cl)sc1Cl,11%,,
CC(C)NC[C@H](O)COc1cccc2ccccc12,26%,,
O=C(Nc1ccccc1)c1cccnc1,26%,,
CC/C(=C(\c1ccccc1)c1ccc(OCCN(C)C)cc1)c1ccccc1,71%,,
